How the values were obtained:
[1] = test system: HEK293T cells; test: POST-IT^DC661-H1 target-ID by SILAC (LC-MS/MS, DC660 competition); assay type: cell-based, Homo sapiens; settings: heavy: 200 nM DC661-H1, light: DC661-H1 (200 nM) and DC660 (2 µM)
Protocol: A stable HEK293T cells expressing the POST-IT system was generated using the PiggyBac transposon system. Briefly, HEK293T cells on a 60 mm dish were co-transfected with 8 µg of PB-puro-CMV-POST-IT-Tet-SBP^K4R-sPup^K61R-iresGFP and 2 µg of the Super PiggyBac Transposase expression vector (PB200PA-1, System Biosciences, USA). Four days later, cells were treated with 5 µg/ml puromycin for about 2 weeks. Media containing puromycin were changed every 3–4 days.
The stable cell line was cultured in SILAC DMEM (280001200, Silantes, Germany) without arginine, lysine, and glutamine, supplemented with 10% dialyzed FBS (C3820-0100, VivaCell Biosciences, China) and 2 mM glutamine. The SILAC medium included 600 mg/l proline (P120032, aladdin, China) to prevent the conversion of arginine to proline ([Bendall et al., 2008]). […]
The expression of POST-IT was induced by the addition of 100 ng/ml doxycycline. […] Cell debris was removed by centrifugation, and protein concentration was determined by the BCA assay. […]
Excised gels were sliced into small pieces of ~1 mm^3, rinsed three times with Milli-Q water, decolorized with 50% acetonitrile and 100 mM NH4HCO3, and dehydrated with 100% acetonitrile. […] The resulting tryptic peptides were analyzed by LC-MS/MS at the Institute of Hydrobiology (Chinese Academy of Sciences, Wuhan, China). […]

[2] = test system: LC3-II; test: Autophagy inhibition by LC3-II western blot in HEK293T cells; assay type: cell-based, Homo sapiens; settings: 12 hr
Description: (§1) Cells transfected and/or treated with different compounds were harvested at the end of treatment.

[3] = test system: LC3-II; test: Autophagy inhibition by LC3-II western blot in A375 cells; assay type: cell-based, Homo sapiens; settings: 12 hr
Description: as §1

[4] = target: T1, VPS37C-V5 (Homo sapiens, UniProt A5D8V6); test: POST-IT labeling and streptavidin pulldown of VPS37C-V5 in HEK293T cells; assay type: cell-based; settings: 200 nM DC661-H1, 24 hr
T1 construct: expressed in transfected cells; host or cells: HEK293T
T1 sequence (A5D8V6 whole entry): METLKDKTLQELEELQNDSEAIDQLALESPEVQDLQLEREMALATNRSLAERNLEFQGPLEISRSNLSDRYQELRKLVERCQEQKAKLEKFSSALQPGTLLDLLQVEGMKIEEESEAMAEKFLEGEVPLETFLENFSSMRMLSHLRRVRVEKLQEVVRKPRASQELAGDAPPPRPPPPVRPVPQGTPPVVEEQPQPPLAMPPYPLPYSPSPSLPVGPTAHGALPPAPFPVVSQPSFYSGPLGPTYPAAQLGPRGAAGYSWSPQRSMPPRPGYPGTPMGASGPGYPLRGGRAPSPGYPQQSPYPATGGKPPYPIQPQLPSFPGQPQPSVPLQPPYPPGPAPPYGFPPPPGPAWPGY

[5] = target: T2, SEPHS2 (Homo sapiens, UniProt Q99611, U60C); test: MST binding to Cy5-labeled SEPHS2; settings: Cy5-labeled recombinant SEPHS2; n = 2, mean ± s.d.
T2 construct: SBPII (N); 6xHis (pET28a backbone, Ni column purification); made in house; host or cells: E. coli BL21(DE3)
T2 sequence (Q99611 with tags, fused parts or gaps U60C): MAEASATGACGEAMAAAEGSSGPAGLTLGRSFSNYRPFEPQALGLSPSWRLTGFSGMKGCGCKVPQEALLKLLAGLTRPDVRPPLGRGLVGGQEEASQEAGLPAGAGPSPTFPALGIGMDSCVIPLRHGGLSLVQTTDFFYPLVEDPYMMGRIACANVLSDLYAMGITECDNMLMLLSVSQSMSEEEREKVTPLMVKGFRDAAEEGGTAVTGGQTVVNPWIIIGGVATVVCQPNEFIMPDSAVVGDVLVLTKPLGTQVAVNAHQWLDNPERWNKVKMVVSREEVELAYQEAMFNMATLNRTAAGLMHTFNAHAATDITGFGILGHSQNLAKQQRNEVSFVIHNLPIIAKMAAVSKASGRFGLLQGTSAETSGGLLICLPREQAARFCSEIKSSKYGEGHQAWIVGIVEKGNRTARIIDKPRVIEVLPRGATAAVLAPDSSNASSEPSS

[6] = target: T3, SRC (Homo sapiens, UniProt P12931); test: In cellulo pupylation and pulldown assay of SRC in HEK293T cells; assay type: cell-based; settings: 250 nM DH5
T3 construct: endogenous in cells; host or cells: HEK293T
T3 sequence (P12931 2-536): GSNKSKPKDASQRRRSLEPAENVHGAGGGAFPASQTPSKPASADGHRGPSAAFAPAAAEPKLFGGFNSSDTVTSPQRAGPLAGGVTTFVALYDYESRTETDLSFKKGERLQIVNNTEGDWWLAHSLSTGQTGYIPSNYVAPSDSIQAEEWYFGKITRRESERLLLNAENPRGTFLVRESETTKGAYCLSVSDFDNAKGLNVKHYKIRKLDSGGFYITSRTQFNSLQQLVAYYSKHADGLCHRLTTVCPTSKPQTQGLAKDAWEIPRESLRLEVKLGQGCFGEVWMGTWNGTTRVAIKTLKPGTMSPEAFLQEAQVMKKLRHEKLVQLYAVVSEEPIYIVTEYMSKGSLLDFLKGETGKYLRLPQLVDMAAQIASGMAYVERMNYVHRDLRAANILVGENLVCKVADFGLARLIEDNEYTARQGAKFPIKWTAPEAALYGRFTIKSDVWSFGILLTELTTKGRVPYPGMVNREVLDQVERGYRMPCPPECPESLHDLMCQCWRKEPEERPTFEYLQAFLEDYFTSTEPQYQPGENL

[7] = test system: HEK293T cells; test: POST-IT^DH5 target-ID proteomics (LC-MS/MS, dasatinib competition); assay type: cell-based, Homo sapiens; settings: for FC(DH5/DASA) / log2(FC(DH5/DASA)): DH5 vs DH5 + dasatinib competition, imputed data
Protocol: HEK293T cells were plated on two 100 mm dishes for each condition and co-transfected next day with 8 µg of pTol2-HA-Halo^8KR-PafA^S126A,K172R and 16 µg of pEF6a-SBP^K4R-sPup^K61R per dish. […] Cells were harvested in 1 ml of RIPA buffer, supplemented with a protease inhibitor cocktail for each dish. Following brief sonication, cell debris was removed by centrifugation at maximum speed for 10 min at 4°C. The supernatants were collected and mixed with 200 µl of streptavidin magnetic beads that had been prewashed with RIPA buffer. […] The eluates were combined and precipitated using trichloroacetic acid (TCA)/DOC. The resultant protein pellets were neutralized with 1 M Tris-HCl pH 8.8, and separated by Tricine-SDS-PAGE, and the CBB-stained bands were excised, with those smaller than 10 kD being removed, and processed for mass analysis.
Excised gels were sliced into small pieces of ~1 mm^3, rinsed three times with Milli-Q water, decolorized with 50% acetonitrile and 100 mM NH4HCO3, and dehydrated with 100% acetonitrile. The dehydrated gel pieces were then reduced with 10 mM DTT in 50 mM NH4HCO3 at 56°C for 1 hr, carboxymethylated with 55 mM iodoacetamide in the dark at room temperature for 30 min, and digested with trypsin at a 1:50 enzyme to protein mass ratio at 37°C overnight. The peptides were collected, desalted with ZipTipC18 (ZTC18S096, Millipore, USA), dried under vacuum, and stored at –20°C until MS analysis. The resulting tryptic peptides were analyzed by LC-MS/MS at the Institute of Hydrobiology (Chinese Academy of Sciences, Wuhan, China). LC-MS/MS data acquisition was performed using a Q Exactive HF-X mass spectrometer coupled with an Easy-nLC 1200 system (Thermo Fisher Scientific, USA). The peptide mixtures were initially loaded onto a C18 trap column and subsequently separated on a C18 reverse-phase analytical HPLC column, Acclaim PepMap C18 column (75 µm ID ×250 mm, 2 µm particle size, 100 Å pore size, Thermo Fisher Scientific), employing a 100 min gradient program with mobile phase A (0.1% formic acid) and mobile phase B (80% acetonitrile, 0.1% formic acid). The gradient program was as follows: 0–65 min, 5–23% B; 65–85 min, 23–45% B; 85–86 min, 45–90% B; 87–90 min, 90% B; 90–90.1 min, 90–5% B; 90.1–100 min, 5% B, maintained at a constant flow rate of 300 nl/min. For data-dependent acquisition mode analysis, each scan cycle consisted of one full-scan mass spectrum (R = 60 K, AGC = 3e6, max IT = 20 ms, scan range = 350–1800 m/z) followed by 20 MS/MS events (R = 15 K, AGC = 2e5, max IT = 50 ms). The higher-energy collisional dissociation collision energy was set to 28 for ion fragmentation. The isolation window for precursor selection was set to 1.6 Da. The former target ion exclusion was set for 25 s.
For the identification of DH5 targets, raw MS data were analyzed using MaxQuant (version 2.1.0.0, Max Planck Institute of Biochemistry; [Cox and Mann, 2008]) with the Andromeda search engine. The MS data were aligned to the UniProt human protein database (Proteome ID: UP000005640). […] Variable modifications included oxidation (M), acetyl (Protein N-term), deamidation (NQ), and GGE (K). The false discovery rate for both peptide and protein identification was set at 1%. The ‘Match Between run’ option were enabled, with other settings at their default values. Missing values from identified proteins were filled through random imputation and further analyzed statistically to derive p values through unpaired SAM analysis using PANDA-view ([Chang et al., 2018]). Proteins commonly present under DMSO condition were considered nonspecific background interactions and excluded from further analysis.

[8] = target: T4, SRC (Danio rerio, UniProt Q1JPZ3); test: In vivo pupylation assay using zebrafish embryos; settings: 10 µM DH5, 24 hr, versus DMSO
T4 construct: from tissue; host or cells: whole zebrafish embryos (AB strain) injected with the POST-IT plasmid
T4 sequence (Q1JPZ3 whole entry): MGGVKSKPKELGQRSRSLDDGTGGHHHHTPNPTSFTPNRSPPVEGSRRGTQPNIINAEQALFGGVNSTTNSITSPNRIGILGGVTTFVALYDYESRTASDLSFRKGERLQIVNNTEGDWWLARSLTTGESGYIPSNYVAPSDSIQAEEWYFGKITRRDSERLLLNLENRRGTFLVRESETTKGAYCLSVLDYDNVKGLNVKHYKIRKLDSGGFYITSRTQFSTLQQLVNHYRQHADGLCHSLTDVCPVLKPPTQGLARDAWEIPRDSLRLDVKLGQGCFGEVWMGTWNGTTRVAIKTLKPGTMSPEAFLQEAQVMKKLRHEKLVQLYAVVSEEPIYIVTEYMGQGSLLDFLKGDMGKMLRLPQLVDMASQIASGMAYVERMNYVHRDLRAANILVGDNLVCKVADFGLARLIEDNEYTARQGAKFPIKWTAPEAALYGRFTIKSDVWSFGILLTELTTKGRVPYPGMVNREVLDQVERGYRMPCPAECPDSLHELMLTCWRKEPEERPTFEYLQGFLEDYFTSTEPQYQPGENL
Protocol: To express POST-IT in early zebrafish embryos, 20 pg of pUbi-QFGal4-2A-3×Flag-POST-IT plasmid and 25 pg of transposase mRNA were injected into an embryo at the one-cell stage. The next day, GFP-positive and live embryos were selected, dechorionated with Pronase E (HY-114158, MedChemExpress, USA), and divided into two groups of approximately 1000 embryos each. One group was treated with DMSO and the other with 10 µM DH5 for 24 hr. The embryos were then collected, rinsed with PBS, and lysed in cell lysis buffer using a motorized plastic pestle. The resulting lysates were cleared by centrifugation, and protein concentrations were measured using the BCA assay. Samples were diluted to 2 mg/ml in 1 ml, mixed with 200 µl of prewashed streptavidin magnetic beads, and incubated at 4°C for 3 hr. The beads were washed five times with wash buffer A. Proteins were eluted with 2×SDS sample buffer and subsequently processed for western blot analysis.

[9] = target: SRC(251-536) (Homo sapiens, UniProt P12931); test: SRC kinase activity assay (Kinase-Lumi luminescent)
Chain of SRC(251-536) (P12931 251-536): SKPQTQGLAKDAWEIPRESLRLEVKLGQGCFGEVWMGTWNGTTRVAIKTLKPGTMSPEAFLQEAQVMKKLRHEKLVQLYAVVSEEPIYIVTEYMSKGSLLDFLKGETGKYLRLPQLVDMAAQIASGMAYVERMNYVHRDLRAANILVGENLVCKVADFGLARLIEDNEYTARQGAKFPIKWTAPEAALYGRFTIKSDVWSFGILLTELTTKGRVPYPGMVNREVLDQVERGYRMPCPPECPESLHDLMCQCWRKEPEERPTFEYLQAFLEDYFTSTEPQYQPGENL

Structure (SMILES)	target proteins identified by POST-IT^DC661-H1 (SILAC) [1]	levels of LC3-II band (autophagy inhibition) [2]	levels of LC3-II band (autophagy inhibition) [3]	enrichment of VPS37C-V5 after streptavidin pulldown [4]	Kd [5] [µM]	POST-IT pulldown of endogenous SRC [6]	target proteins identified by POST-IT^DH5 ([7]; HEK293T, 250 nM DH5 with or without 2.5 µM dasatinib, 24 hr)	FC(DH5/DASA) ([7]; protein AAGAB)	log2(FC(DH5/DASA)) ([7]; protein AAGAB)	FC(DH5/DASA) ([7]; protein AAK1)	log2(FC(DH5/DASA)) ([7]; protein AAK1)	FC(DH5/DASA) ([7]; protein AAMDC)	log2(FC(DH5/DASA)) ([7]; protein AAMDC)	FC(DH5/DASA) ([7]; protein AAR2)	log2(FC(DH5/DASA)) ([7]; protein AAR2)	FC(DH5/DASA) ([7]; protein AARS)	log2(FC(DH5/DASA)) ([7]; protein AARS)	enrichment of endogenous SRC by POST-IT in live embryos [8]	IC50 [9] [µM]
O=C(CN(CCCCCCNc1ccnc2cc(Cl)ccc12)CCCCCCNc1ccnc2cc(Cl)ccc12)NCCCCCNC(=O)OCCOCCOCCOC(=O)NCCOCCOCCCCCCCl [DC661-H1]	identified several target proteins directly linked to autophagy regulation	significantly increased	significantly increased	substantially enriched	–	–	–	–	–	–	–	–	–	–	–	–	–	–	–
Cc1nc(Nc2ncc(C(=O)Nc3c(C)cccc3Cl)s2)cc(N2CCN(CCOC(=O)NCCCCCNC(=O)OCCOCCOCCOC(=O)NCCOCCOCCCCCCCl)CC2)n1 [DH5, 23-Chloro-10-oxo-3,6,9,14,17-pentaoxa-11-azatricosyl(2-(4-(6-((5-((2-chloro-6-methylphenyl)carbamoyl)thiazol-2-yl)amino)-2-methylpyrimidin-4-yl)piperazin-1-yl)ethyl) pentane-1,5-diyldicarbamate]	–	–	–	–	11.6 ± 5.7	efficiently pull down endogenous SRC	eight known target proteins (FYN, RIPK2, MAPK14, ABL2, ABL1, CSK, LYN, and SRC) with significant enrichment	1.3259	0.4070	2.0012	1.0009	1.9368	0.9537	1.5565	0.6383	1.1988	0.2616	marked enrichment	0.452

Source: article PMC11677243, “Target protein identification in live cells and organisms with a non-diffusive proximity tagging system” (eLife, 2024)
